Structures are written as SMILES.

Data set [1] can be described thus: Stability of the molecules under electroporating conditions and temperature, measured by fluorescence. It counts as physicochemical. The conditions noted are these: 1 mM solutions under electroporating conditions. The protocol: In order to assess the stability of these molecules during electroporation, calcein and sulphorhodamine solutions (1 mM each) were exposed to electroporating conditions similar to those used in this study. No difference between the intensity of their fluorescence before and after exposure to electric fields could be detected. In addition, these molecules are stable up to a temperature of 100° C. (measured in terms of fluorescence).

The conditions of data set [2]: human, 1 mM, pH 7.4.
Method: Full thickness of human cadaver skin (obtained from local hospitals) was heat stripped by immersion in 60° C. water for two minutes followed by the removal of the epidermis. The skin was then stored in a humidified chamber (95% relative humidity) at 4° C. The heat-stripped human epidermis was placed in a custom-made side-by-side permeation chamber, skin area of 0.64 cm^2, designed to adapt an ultrasound transducer at the donor side. The donor compartment was filled with a 1 mM solution of calcein (MW 623, electric charge—4; Sigma Chemicals) (CA) and 1 mM sulphorhodamine (MW 607, electric charge—1; Sigma Chemical) (SR) in 150 mM Phosphate Buffer Saline (PBS; Sigma Chemicals).
The ultrasound probe was inserted into the donor compartment. […]
The fluorometer was set up for dual wavelength measurements (excitation wavelength=488 nm, emission wavelength=515 nm (calcein), and excitation wavelength =586 nm, emission wavelength=607 nm (sulphorhodamine)). […] Transdermal calcein and sulphorhodamine flux was calculated from the fluorescence readings by taking into account parameters such as flow rate, receiver compartment volume, and fluorometer caveat volume. The effluent from the receptor compartment was pumped through a spectrofluorometer (Fluorolog-II-system F112AI SPEX-industries, Edison, N.J.) where the fluorescence of calcein and sulphorhodamine was separately measured twice every minute. […]
Data set [3] is classed as in vitro ADME. The text has this:
Passive experiments without ultrasound with polyethylene glycol 200 dilaurate (PEG), isopropyl myristate (IM), and glycerol trioleate (GT) result in corticosterone flux enhancement values of only 2, 5, and 0.8, relative to the passive flux from PBS alone. […] These passive flux enhancements were due to (1) the increased corticosterone solubility in the enhancers, and (2) interactions of linoleic acid with the skin. Specifically, linoleic acid increased the corticosterone permeability by nearly 20-fold over that from 50% ethanol alone. […] Ultrasound combined with 50% ethanol produces a 2-fold increase in corticosterone transport above the passive case, but increase by 14-fold the transport from LA/Ethanol.

For data set [4] the following is noted: ethanol as chemical enhancer; cited from earlier work.

With `O=C(O)CN(CC(=O)O)Cc1cc2c(cc1O)Oc1cc(O)c(CN(CC(=O)O)CC(=O)O)cc1C21OC(=O)c2ccccc21` [calcein], the “difference in fluorescence intensity before and after exposure to electric fields” value in data set [1] was “No difference”. Besides, in data set [2], the “enhancement: amount transported in the presence of ultrasound-electric field pulsing to that in the presence of electric field pulsing alone” value is on record as 2.
Turning to `C[C@]12C[C@H](O)[C@H]3[C@@H](CCC4=CC(=O)CC[C@@]43C)[C@@H]1CC[C@@H]2C(=O)CO` [corticosterone], in data set [3], the flux was 0.16 mg/cm^2/hr, the “flux relative to that from PBS alone” value is given as 13,000 fold, the “flux with ultrasound relative to the passive flux from the same enhancers” value is 1.3-5.0 and the “permeability increase by linoleic acid over that from 50% ethanol alone” value is reported as approximately 20 fold.
`C[C@]12CC[C@@H]3c4ccc(O)cc4CC[C@H]3[C@@H]1CC[C@@H]2O` [estradiol]: the “flux increase by ethanol” value in data set [4] was 140 fold.
Turning to `O=S(=O)([O-])c1cc(S(=O)(=O)O)ccc1C1=c2cc3c4c(c2Oc2c1cc1c5c2CCCN5CCC1)CCC[N+]=4CCC3` [sulphorhodamine], the “difference in fluorescence intensity before and after exposure to electric fields” value in data set [1] is recorded as “No difference”.

Values taken from patent US20040210184A1, “Effect of electric field and ultrasound for transdermal drug delivery” (Massachusetts Institute of Technology, priority 1995, published 2004).
